Test results from patent publication US9006445B2, “Polymorphic form of pridopidine hydrochloride” (Ivax International GmbH, priority 2011, dated 2015).
Where two headings read alike, the source gives them in different places.

Experiments:
[1] = 25° C.
Procedure: Dynamic vapour sorption (DVS) measurements were conducted using a Q5000 SA from TA instruments.
Experiments were conducted in two sorption/desorption cycles between 0% RH and 95% RH. Prior to the first sorption cycle the sample was equilibrated at 20% RH and the initial weight recorded. Samples were analyzed in an aluminium pan. Humidity was brought down to 0% RH and the sample dried until the weight had stabilized within a given limit. The temperature was held constant at 25° C. Maximum step time was 720 min. Gas flow was 200 cm3/min.

[2] = mixtures of the two forms slurried in organic solvent for 4 hours, XRPD
Procedure: (§1) In order to confirm this finding experimentally, a seeding experiment was carried out, where mixtures of the two forms were slurried in an organic solvent for 4 hours at various temperatures.

[3] = conclusion from calculated Tt and seeding experiment
Procedure: as §1

[4] = for Particle size D10 / Particle size D50 / Particle size D90: image analysis; for Aspect ratio AR10 / Aspect ratio AR50 / Aspect ratio AR90: longest divided by shortest particle dimension
Procedure: Microscopic analysis was carried out using a Zeiss Axiolab microscope (Carl Zeiss, Göttingen, Germany). Photomicrographs were captured using a DeltaPix digital camera and Deltapix software version 1.6 (Maaloev, Denmark). […] The particle size was determinated using Motic Image Plus 2.0 software (Motic Group Inc, China), calibrated to pictures of reference scales taken with the used objectives.

[5] = triplicate; for bulk density: 50.0 g sample; for tapped density: 2500 taps at 100 taps/min
Procedure: Density determinations were performed as described in Ph. Eur. 2.9.34. The method was modified as the sample amount placed in the 250 ml volumetric glass cylinder was 50.0 g and 2500 taps were run at 100 taps/min. The measurements were done in triplicate.

| Compound | hygroscopicity (DVS) ([1]; below 80% RH) | hygroscopicity (DVS) ([1]; in excess of 80% RH) | temperature at which the polymorphic outcome of slurrying was this form [2] | temperature at which the form is the thermodynamically most stable form [3] | Particle size D10 [4] | Particle size D50 [4] | Particle size D90 [4] | Aspect ratio AR10 [4] | Aspect ratio AR50 [4] | Aspect ratio AR90 [4] | bulk density [5] | tapped density [5] |
| --- | --- | --- | --- | --- | --- | --- | --- | --- | --- | --- | --- | --- |
| CCCN1CCC(c2cccc(S(C)(=O)=O)c2)CC1 [Form I, 4-(3-methanesulfonyl-phenyl)-1-propyl-piperidine] | non-hygroscopic | deliquescent | below 125 °C | above 127 °C | 9 μm | 21 μm | 42 μm | 1.6 | 3.1 | 5.8 | 0.212 g/mL | 0.264 g/mL |
| CCCN1CCC(c2cccc(S(C)(=O)=O)c2)CC1.Cl [Form II, 4-(3-methanesulfonyl-phenyl)-1-propyl-piperidine hydrochloride salt] | non-hygroscopic | deliquescent | above 130 °C | above 127 °C | 49 μm | 170 μm | 363 μm | 1.1 | 1.6 | 2.9 | 0.382 g/mL | 0.486 g/mL |
